In patent US8497271B2, “Modulators of G protein-coupled receptor 88” (Bristol-Myers Squibb Company, priority 2009, dated 2013):
Like-named read-outs stand apart in the source and are kept apart here.

Biological target: G protein-coupled receptor 88 (Homo sapiens, UniProt Q9GZN0)
Assay: EC50 of select compounds as GPR88 modulators (Table 2; GTPγS assay and cAMP HTRF assay are both described, and the one used is not stated)
Assay type: cell-based
Details: read-out: Range (EC50)
Experimental: 96 well GTPγS assay plates were purchased from Perkin Elmer. Wheat Germ Agglutinin PVT SPA beads and ^35S-GTPγS were purchased from Amersham GDP, GTPγS and all buffer reagents were from Sigma. 384 well white NBS plates were purchased from corning. Pertussis toxin was purchased from Calbiochem. All cell culture reagents were purchased from Invitrogen. Forskolin was purchased from Sigma. The cAMP HTRF kit was purchased fron Cisbio International.
The GTPγS assay buffer consisted of 10 mM MgCl2, 180 mM NaCl, 200 uM GDP, 0.167 mg/ml DTT, 1 mM EGTA and 20 mM HEPES pH7.4. This buffer was used for dilution of membranes, beads, and ^35S GTPγS components. To each well of the 96 well assay plate 48 ul assay buffer, 2 ul of 100× compound, 50 ul membrane solution (0.2 ug/ul), 50 ul ^35S GTPγS solution (0.8 nM) and 50 ul of SPA beads (10 mg/ml). Non-specific binding was determined by the addition of cold GTPγS to control wells. The plates were sealed with clear sealing tape and incubated at room temperature for 1 hour. GTPγS activity was detected using a Wallac Micro-Beta Trilux liquid scintillation counter. Non-specific binding was determined using 10 uM cold GTPγS.
The cAMP HTRF assay is modified from the Cisbio International kit procedure 62AM4PEJ. Assay plates were prepared by stamping 0.1 ul of 100× compound stock solutions diluted in DMSO or DMSO alone into 384 well NBS plates. The cAMP HTRF assay was performed using cells in suspension. The cAMP HTRF assay buffer consisted of Hank's Balanced Salt Solution (HBSS), 2 mM CaCl2, 5 mM MgCl2, 20 mM HEPES and 1 mM 3-isobutyl-1-methylxanthine (IBMX) (added fresh at the time of assay). For pertussis toxin treatment pertussis toxin (100 ng/ml) was added to culture medium for 16 hours prior to assay. Confluent cells were disrupted with cell dissociation buffer count cells then centrifuged at 1000×g for minutes. The cell pellet was resuspended in assay buffer alone for basal cAMP measurements or with 0.75 uM forskolin (added immediately prior to addition to wells) for addition to all other wells. Using a Multidrop 384 (Lab systems) 10 ul of cell suspension was added to each well containing compound or DMSO. The plates were incubated at room temperature for 30 minutes covered. During this time the cAMP standard curve was prepared as per manufacturer's instruction. At the end of the incubation 10 ul of anti-cAMP cryptate and 10 ul cAMP-XL, diluted in manufacturer's lysis buffer, were added to each well. The plated were incubated at room temperature for 60 minutes covered then read on an Envision plate reader (Perkin Elmer) and the 665 nm/620 nm fluorescence ratio determined Fluorescence ratio values were converted to molar cAMP concentrations from the standard curve using the GraphPad Prism program.

Chain of G protein-coupled receptor 88 (Q9GZN0 whole entry, species assumed): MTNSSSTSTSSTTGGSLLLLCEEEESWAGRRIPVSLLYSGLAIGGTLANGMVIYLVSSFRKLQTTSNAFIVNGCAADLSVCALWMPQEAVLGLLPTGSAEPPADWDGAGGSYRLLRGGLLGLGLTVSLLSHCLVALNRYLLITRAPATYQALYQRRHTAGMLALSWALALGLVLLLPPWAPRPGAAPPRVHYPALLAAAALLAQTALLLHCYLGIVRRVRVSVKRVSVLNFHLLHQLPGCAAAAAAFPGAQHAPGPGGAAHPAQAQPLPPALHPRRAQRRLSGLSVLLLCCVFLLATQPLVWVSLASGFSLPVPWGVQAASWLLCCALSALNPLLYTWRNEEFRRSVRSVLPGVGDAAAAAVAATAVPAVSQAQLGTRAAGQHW

Row | SMILES | EC50 (numeric value printed) | EC50 (class symbol X)
1 | Cc1ccc(-c2ccc([C@H](CO)NC(=O)C3CC3c3cccs3)cc2)cc1 (stereo in doubt) [Example 5, (1S,2S)-2-Thiophen-2-yl-cyclopropanecarboxylic acid [(R)-2-hydroxy-1-(4′-methyl-biphenyl-4-yl)-ethyl]-amide] | 81 nM | –
2 | CCC(CC)COc1ccc([C@H](CO)NC(=O)[C@H]2C[C@@H]2c2ccccc2)c(OC)c1 [Example 3, (1S,2S)-2-Phenyl-cyclopropanecarboxylic acid {(R)-1-[4-(2-ethyl-butoxy)-2-methoxy-phenyl]-2-hydroxy-ethyl}-amide] | – | 62 to 130 nM
3 | CC[C@H](C)COc1ccc([C@H](CO)NC(=O)[C@H]2C[C@@H]2c2cccs2)cc1 [Example 6, (1S,2S)-2-Thiophen-2-yl-cyclopropanecarboxylic acid {(R)-2-hydroxy-1-[4-((S)-2-methyl-butoxy)-phenyl]-ethyl}-amide] | 124 nM | –
4 | COc1cc(-c2ccc(C)cc2)ccc1[C@H](CO)NC(=O)[C@H]1C[C@@H]1c1cccs1 [Example 12, (1S,2S)-2-Thiophen-2-yl-cyclopropanecarboxylic acid [(R)-2-hydroxy-1-(3-methoxy-4′-methyl-biphenyl-4-yl)-ethyl]-amide] | – | 62 to 130 nM
5 | CCCC(C)COc1ccc([C@H](CO)NC(=O)[C@H]2C[C@@H]2c2cccs2)cc1 (stereo partly drawn) [Example 15, (1S,2S)-2-Thiophen-2-yl-cyclopropanecarboxylic acid {(R)-2-hydroxy-1-[4-(2-methyl-pentyloxy)-phenyl]-ethyl}-amide] | 74 nM | –
